Values after ≈ are worked out from the molar mass of the structure shown. Positions of bridges follow the written chain, without caps; N, C: chain ends. Non-standard residues stand in square brackets, D forms with d. Residues, ends and D or L forms follow the SMILES beside them. *: point of attachment. X1 = CC[C@H](C)CCCCC(=O)*; Dab = NCC[C@H](N)C(=O)O
Key:
Acinetobacter baumannii [1] = assay: Antibacterial activity against multi-drug resistant Acinetobacter baumannii clinical isolate 7 assessed as inhibition of bacterial growth incubated for 16 to 18 hrs by CLSI protocol based method; format: functional; conditions: time 16-18 hrs, read-out: MIC100
Acinetobacter baumannii [2] = assay: Antibacterial activity against multi-drug resistant Acinetobacter baumannii clinical isolate 1 assessed as inhibition of bacterial growth incubated for 16 to 18 hrs by CLSI protocol based method; format: functional; conditions: time 16-18 hrs, read-out: MIC100
Acinetobacter baumannii [3] = assay: Antibacterial activity against multi-drug resistant Acinetobacter baumannii clinical isolate 2 assessed as inhibition of bacterial growth incubated for 16 to 18 hrs by CLSI protocol based method; format: functional; conditions: time 16-18 hrs, read-out: MIC100
Acinetobacter baumannii [4] = assay: Antibacterial activity against multi-drug resistant Acinetobacter baumannii Naval-17 assessed as inhibition of bacterial growth incubated for 16 to 18 hrs by CLSI protocol based method; format: functional; conditions: time 16-18 hrs, read-out: MIC100
Acinetobacter baumannii [5] = assay: Antibacterial activity against multi-drug resistant Acinetobacter baumannii WL-136 assessed as inhibition of bacterial growth incubated for 16 to 18 hrs by CLSI protocol based method; format: functional; conditions: time 16-18 hrs, read-out: MIC100
Acinetobacter baumannii [6] = assay: Antibacterial activity against multi-drug resistant Acinetobacter baumannii Naval-18 assessed as inhibition of bacterial growth incubated for 16 to 18 hrs by CLSI protocol based method; format: functional; conditions: time 16-18 hrs, read-out: MIC100
Acinetobacter baumannii [7] = assay: Antibacterial activity against multi-drug resistant Acinetobacter baumannii WL-487 assessed as inhibition of bacterial growth incubated for 16 to 18 hrs by CLSI protocol based method; format: functional; conditions: time 16-18 hrs, read-out: MIC100
Acinetobacter baumannii [8] = assay: Antibacterial activity against multi-drug resistant Acinetobacter baumannii clinical isolate 5 assessed as inhibition of bacterial growth incubated for 16 to 18 hrs by CLSI protocol based method; format: functional; conditions: time 16-18 hrs, read-out: MIC100
Acinetobacter baumannii [9] = assay: Antibacterial activity against Acinetobacter baumannii ATCC 17978 assessed as inhibition of bacterial growth incubated for 16 to 18 hrs by CLSI protocol based method; format: functional; conditions: time 16-18 hrs, read-out: MIC100
Acinetobacter baumannii [10] = assay: Antibacterial activity against multi-drug resistant Acinetobacter baumannii clinical isolate 11 assessed as inhibition of bacterial growth incubated for 16 to 18 hrs by CLSI protocol based method; format: functional; conditions: time 16-18 hrs, read-out: MIC100
Acinetobacter baumannii [11] = assay: Antibacterial activity against multi-drug resistant Acinetobacter baumannii clinical isolate 10 assessed as inhibition of bacterial growth incubated for 16 to 18 hrs by CLSI protocol based method; format: functional; conditions: time 16-18 hrs, read-out: MIC100
Acinetobacter baumannii [12] = assay: Antibacterial activity against multi-drug resistant Acinetobacter baumannii NR-17777 assessed as inhibition of bacterial growth incubated for 16 to 18 hrs by CLSI protocol based method; format: functional; conditions: time 16-18 hrs, read-out: MIC100
Acinetobacter baumannii [13] = assay: Antibacterial activity against multi-drug resistant Acinetobacter baumannii H72721 assessed as inhibition of bacterial growth incubated for 16 to 18 hrs by CLSI protocol based method; format: functional; conditions: time 16-18 hrs, read-out: MIC100
Acinetobacter baumannii [14] = assay: Antibacterial activity against multi-drug resistant Acinetobacter baumannii Naval-81 assessed as inhibition of bacterial growth incubated for 16 to 18 hrs by CLSI protocol based method; format: functional; conditions: time 16-18 hrs, read-out: MIC100
Acinetobacter baumannii [15] = assay: Antibacterial activity against carbapenem-resistant Acinetobacter baumannii BAA 1605 assessed as inhibition of bacterial growth incubated for 16 to 18 hrs by CLSI protocol based method; format: functional; conditions: time 16-18 hrs, read-out: MIC100
Acinetobacter baumannii [16] = assay: Antibacterial activity against multi-drug resistant Acinetobacter baumannii clinical isolate 8 assessed as inhibition of bacterial growth incubated for 16 to 18 hrs by CLSI protocol based method; format: functional; conditions: time 16-18 hrs, read-out: MIC100
Acinetobacter baumannii [17] = assay: Antibacterial activity against multi-drug resistant Acinetobacter baumannii clinical isolate 6 assessed as inhibition of bacterial growth incubated for 16 to 18 hrs by CLSI protocol based method; format: functional; conditions: time 16-18 hrs, read-out: MIC100
Acinetobacter baumannii [18] = assay: Antibacterial activity against multi-drug resistant Acinetobacter baumannii clinical isolate 3 assessed as inhibition of bacterial growth incubated for 16 to 18 hrs by CLSI protocol based method; format: functional; conditions: time 16-18 hrs, read-out: MIC100
Acinetobacter baumannii [19] = assay: Antibacterial activity against multi-drug resistant Acinetobacter baumannii clinical isolate 4 assessed as inhibition of bacterial growth incubated for 16 to 18 hrs by CLSI protocol based method; format: functional; conditions: time 16-18 hrs, read-out: MIC100
Acinetobacter baumannii [20] = assay: Antibacterial activity against multi-drug resistant Acinetobacter baumannii 5-109 assessed as inhibition of bacterial growth incubated for 16 to 18 hrs by CLSI protocol based method; format: functional; conditions: time 16-18 hrs, read-out: MIC100
Acinetobacter baumannii [21] = assay: Antibacterial activity against multi-drug resistant Acinetobacter baumannii clinical isolate 12 assessed as inhibition of bacterial growth incubated for 16 to 18 hrs by CLSI protocol based method; format: functional; conditions: time 16-18 hrs, read-out: MIC100
Acinetobacter baumannii [22] = assay: Antibacterial activity against multi-drug resistant Acinetobacter baumannii clinical isolate 9 assessed as inhibition of bacterial growth incubated for 16 to 18 hrs by CLSI protocol based method; format: functional; conditions: time 16-18 hrs, read-out: MIC100
Acinetobacter baumannii [23] = assay: Antibacterial activity against multi-drug resistant Acinetobacter baumannii BC-5 assessed as inhibition of bacterial growth incubated for 16 to 18 hrs by CLSI protocol based method; format: functional; conditions: time 16-18 hrs, read-out: MIC100
Acinetobacter baumannii [24] = assay: Antibacterial activity against multi-drug resistant Acinetobacter baumannii 5-143 assessed as inhibition of bacterial growth incubated for 16 to 18 hrs by CLSI protocol based method; format: functional; conditions: time 16-18 hrs, read-out: MIC100
Acinetobacter baumannii [25] = assay: Antibacterial activity against multi-drug resistant Acinetobacter baumannii 5-189 assessed as inhibition of bacterial growth incubated for 16 to 18 hrs by CLSI protocol based method; format: functional; conditions: time 16-18 hrs, read-out: MIC100
Acinetobacter baumannii [26] = assay: Antibacterial activity against multi-drug resistant Acinetobacter baumannii 5-032 assessed as inhibition of bacterial growth incubated for 16 to 18 hrs by CLSI protocol based method; format: functional; conditions: time 16-18 hrs, read-out: MIC100
[27] = Selectivity index, ratio of CC50 for cytotoxicity against African green monkey VERO cells to MIC for antibacterial activity against carbapenem-resistant Acinetobacter baumannii BAA 1605 assessed as inhibition of bacterial growth; format: toxicity, cell-based; conditions: read-out: Selectivity Index
Staphylococcus aureus = assay: Antibacterial activity against Staphylococcus aureus ATCC 29213 assessed as inhibition of bacterial growth incubated for 16 to 18 hrs by CLSI protocol based method; format: functional; conditions: time 16-18 hrs, read-out: MIC100
[28] = Cytotoxicity against African green monkey Vero cells assessed as reduction in cell viability incubated for 72 hrs by MTT assay; format: toxicity, cell-based; conditions: chlorocebus sabaeus
Pseudomonas aeruginosa = assay: Antibacterial activity against Pseudomonas aeruginosa ATCC 27853 assessed as inhibition of bacterial growth incubated for 16 to 18 hrs by CLSI protocol based method; format: functional; conditions: time 16-18 hrs, read-out: MIC100
Escherichia coli = assay: Antibacterial activity against Escherichia coli ATCC 25922 assessed as inhibition of bacterial growth incubated for 16 to 18 hrs by CLSI protocol based method; format: functional; conditions: time 16-18 hrs, read-out: MIC100
Klebsiella pneumoniae = assay: Antibacterial activity against Klebsiella pneumoniae BAA 1705 assessed as inhibition of bacterial growth incubated for 16 to 18 hrs by CLSI protocol based method; format: functional; conditions: time 16-18 hrs, read-out: MIC100
Acinetobacter baumannii [29] = assay: Antibacterial activity against Acinetobacter baumannii; format: functional

SMILES: CC(C)CCCCC(=O)N[C@@H](CCN)C(=O)N[C@H](C(=O)N[C@@H](CCN)C(=O)N[C@H]1CCNC(=O)[C@H]([C@@H](C)O)NC(=O)[C@H](CCN)NC(=O)[C@H](CCN)NC(=O)[C@H](CC(C)C)NC(=O)[C@@H](Cc2ccccc2)NC(=O)[C@H](CCN)NC1=O)[C@@H](C)O.CC[C@H](C)CCCCC(=O)N[C@@H](CCN)C(=O)N[C@H](C(=O)N[C@@H](CCN)C(=O)N[C@H]1CCNC(=O)[C@H]([C@@H](C)O)NC(=O)[C@H](CCN)NC(=O)[C@H](CCN)NC(=O)[C@H](CC(C)C)NC(=O)[C@@H](Cc2ccccc2)NC(=O)[C@H](CCN)NC1=O)[C@@H](C)O (X1-[Dab]T[Dab][Dab][Dab][dF]L[Dab][Dab]T; lactam 4-C)
- MIC (Acinetobacter baumannii [1]): 0.5 µg/mL
- MIC (Acinetobacter baumannii [2]): 0.25 µg/mL
- MIC (Acinetobacter baumannii [3]): 0.25 µg/mL
- MIC (Acinetobacter baumannii [4]): 0.25 µg/mL
- MIC (Acinetobacter baumannii [5]): 0.25 µg/mL
- MIC (Acinetobacter baumannii [6]): 0.25 µg/mL
- MIC (Acinetobacter baumannii [7]): 0.5 µg/mL
- MIC (Acinetobacter baumannii [8]): 0.25 µg/mL
- MIC (Acinetobacter baumannii [9]): 0.25 µg/mL
- MIC (Acinetobacter baumannii [10]): 0.25 µg/mL
- MIC (Acinetobacter baumannii [11]): 0.25 µg/mL
- MIC (Acinetobacter baumannii [12]): 0.25 µg/mL
- MIC (Acinetobacter baumannii [13]): 0.25 µg/mL
- MIC (Acinetobacter baumannii [14]): 0.125 µg/mL
- MIC (Acinetobacter baumannii [15]): 0.25 µg/mL
- MIC (Acinetobacter baumannii [16]): 0.5 µg/mL
- MIC (Acinetobacter baumannii [17]): 0.25 µg/mL
- MIC (Acinetobacter baumannii [18]): 0.25 µg/mL
- MIC (Acinetobacter baumannii [19]): 0.25 µg/mL
- MIC (Acinetobacter baumannii [20]): 0.25 µg/mL
- MIC (Acinetobacter baumannii [21]): 0.25 µg/mL
- MIC (Acinetobacter baumannii [22]): 0.5 µg/mL
- MIC (Acinetobacter baumannii [23]): 0.25 µg/mL
- MIC (Acinetobacter baumannii [24]): 0.25 µg/mL
- MIC (Acinetobacter baumannii [25]): 0.25 µg/mL
- MIC (Acinetobacter baumannii [26]): 0.125 µg/mL

SMILES: O=C(CCN1C(=O)c2cccc3cccc(c23)C1=O)NNc1ccc(Cl)cc1
- MIC (Acinetobacter baumannii [1]): 1 µg/mL (≈ 2.54 µM)
- MIC (Acinetobacter baumannii [2]): 1 µg/mL (≈ 2.54 µM)
- MIC (Acinetobacter baumannii [3]): 1 µg/mL (≈ 2.54 µM)
- MIC (Acinetobacter baumannii [4]): 1 µg/mL (≈ 2.54 µM)
- MIC (Acinetobacter baumannii [5]): 1 µg/mL (≈ 2.54 µM)
- selectivity ratio [27]: > 200
- MIC (Staphylococcus aureus): > 64 µg/mL
- MIC (Acinetobacter baumannii [6]): 1 µg/mL (≈ 2.54 µM)
- MIC (Acinetobacter baumannii [7]): 1 µg/mL (≈ 2.54 µM)
- MIC (Acinetobacter baumannii [8]): 2 µg/mL (≈ 5.08 µM)
- MIC (Acinetobacter baumannii [9]): 1 µg/mL (≈ 2.54 µM)
- MIC (Acinetobacter baumannii [10]): 2 µg/mL (≈ 5.08 µM)
- CC50 at 72 h [28]: > 100 µg/mL
- MIC (Acinetobacter baumannii [11]): 2 µg/mL (≈ 5.08 µM)
- MIC (Acinetobacter baumannii [12]): 2 µg/mL (≈ 5.08 µM)
- MIC (Acinetobacter baumannii [13]): 1 µg/mL (≈ 2.54 µM)
- MIC (Acinetobacter baumannii [14]): 1 µg/mL (≈ 2.54 µM)
- MIC (Acinetobacter baumannii [15]): 0.5 µg/mL (≈ 1.27 µM)
- MIC (Acinetobacter baumannii [16]): 1 µg/mL (≈ 2.54 µM)
- MIC (Acinetobacter baumannii [17]): 2 µg/mL (≈ 5.08 µM)
- MIC (Pseudomonas aeruginosa): > 64 µg/mL
- MIC (Acinetobacter baumannii [18]): 0.5 µg/mL (≈ 1.27 µM)
- MIC (Acinetobacter baumannii [19]): 1 µg/mL (≈ 2.54 µM)
- MIC (Escherichia coli): > 64 µg/mL
- MIC (Acinetobacter baumannii [20]): 2 µg/mL (≈ 5.08 µM)
- MIC (Acinetobacter baumannii [21]): 1 µg/mL (≈ 2.54 µM)
- MIC (Acinetobacter baumannii [22]): 1 µg/mL (≈ 2.54 µM)
- MIC (Klebsiella pneumoniae): > 64 µg/mL
- MIC (Acinetobacter baumannii [23]): 1 µg/mL (≈ 2.54 µM)
- MIC (Acinetobacter baumannii [24]): 2 µg/mL (≈ 5.08 µM)
- MIC (Acinetobacter baumannii [25]): 2 µg/mL (≈ 5.08 µM)
- MIC (Acinetobacter baumannii [26]): 2 µg/mL (≈ 5.08 µM)

SMILES: N#Cc1ccc(NNC(=O)c2ccc(Br)cc2)cc1
- MIC (Acinetobacter baumannii [29]): 0.25 µg/mL (≈ 0.791 µM)
